Experimental data taken from ChEMBL document CHEMBL4342517, “Design, Synthesis, and Mechanism Study of Benzenesulfonamide-Containing Phenylalanine Derivatives as Novel HIV-1 Capsid Inhibitors with Improved Antiviral Activities” (J Med Chem, 2020).
Active and inactive are the calls of the source. The calls are words filed in the database; no cut-off is given here.

Key:
[1] = Mean residence time (0 to infinity) in Sprague-Dawley rat at 20 mg/kg, po measured during 5 mins to 12 hrs by LC-MS analysis; conditions: in vivo
[2] = AUC (0 to infinity) in Sprague-Dawley rat at 2 mg/kg, iv measured during 5 mins to 12 hrs by LC-MS analysis; format: ADME, organism-based; design: dose 2 mg/kg, time infinity, route intravenous; conditions: in vivo
[3] = human, microsomes
Description: Intrinsic clearance in human liver microsomes in presence of NADPH regenerating system by LC-MS/MS analysis

in vivo [4] = conditions: Sprague-Dawley, rat, po, 20 mg/kg
[5] = test system: Human immunodeficiency virus 1; assay: Antiviral activity against HIV1 Env-pseudotyped virus in human U87.CD4.CCR5 target cells assessed as reduction in viral infection at early stage; format: functional, organism-based; conditions: Human immunodeficiency virus 1, U87/CD4/CCR5
[6] = Mean residence time (0 to infinity) in Sprague-Dawley rat at 2 mg/kg, iv measured during 5 mins to 12 hrs by LC-MS analysis; conditions: in vivo
in vitro [7] = conditions: human, liver microsomes
Description: Stability in human liver microsomes assessed as compound remaining level incubated for 60 mins in presence of NADPH regenerating system by LC-MS/MS analysis

in vivo [8] = conditions: Sprague-Dawley, rat, iv, 2 mg/kg
[9] = test system: Human immunodeficiency virus 1; assay: Antiviral activity against HIV1 NL4-3 infected in human TZM-bl cells assessed as reduction in virus induced cytopathogenicity incubated for 1 day by luciferase reporter gene assay; format: functional, organism-based; conditions: Human immunodeficiency virus 1, NL4-3, TZM-bl, 24 h
[10] = Half life in Sprague-Dawley rat at 20 mg/kg, po measured during 5 mins to 12 hrs by LC-MS analysis; conditions: in vivo
[11] = test system: Human immunodeficiency virus 2; assay: Antiviral activity against HIV2 ROD infected in human MT4 cells assessed as reduction in virus-induced cell death incubated for 5 days by MTT assay; conditions: Human immunodeficiency virus 2, ISOLATE ROD, MT4, 120 h
[12] = AUC (0 to infinity) in Sprague-Dawley rat at 20 mg/kg, po measured during 5 mins to 12 hrs by LC-MS analysis; format: ADME, organism-based; design: dose 20 mg/kg, time infinity, route oral; conditions: in vivo
[13] = Volume of distribution in Sprague-Dawley rat at 2 mg/kg, iv measured during 5 mins to 12 hrs by LC-MS analysis; format: ADME, organism-based; conditions: in vivo
[14] = Stability in human plasma assessed as compound remaining level at 2 uM incubated for 120 mins at 37 degC by LC-MS/MS analysis; format: ADME, cell-free; conditions: 2 h
[15] = Clearance in Sprague-Dawley rat at 2 mg/kg, iv measured during 5 mins to 12 hrs by LC-MS analysis; format: ADME, organism-based; conditions: in vivo
[16] = Acute toxicity in Kunming mouse assessed as increase in body weight at 1000 mg/kg, ig administered as single dose; format: organism-based; conditions: in vivo, po
[17] = Cmax in Sprague-Dawley rat at 2 mg/kg, iv measured during 5 mins to 12 hrs by LC-MS analysis; format: ADME, organism-based; design: dose 2 mg/kg, route intravenous; conditions: in vivo
MT4 = assay: Cytotoxicity in mock-infected human MT4 assessed as reduction in cell viability incubated for 5 days by MTT assay; format: cell-based; conditions: mt4, 120 h
[18] = target: Structural capsid protein (Human immunodeficiency virus 1) (UniProt Q76129); assay: Inhibition of HIV1 NL4-3 capsid protein assembly at 50 uM measured every 1 min for 19 mins
Chain of Structural capsid protein (Human immunodeficiency virus 1) (Q76129 as listed by the source): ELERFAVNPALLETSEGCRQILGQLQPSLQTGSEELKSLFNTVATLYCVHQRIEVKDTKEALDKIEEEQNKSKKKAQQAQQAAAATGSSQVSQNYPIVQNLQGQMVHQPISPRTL

[19] = Acute toxicity in Kunming mouse assessed as induction of abnormal behaviors by measuring ruffled fur at 1000 mg/kg, ig administered as single dose; format: organism-based; conditions: in vivo, po
[20] = Half life in Sprague-Dawley rat at 2 mg/kg, iv measured during 5 mins to 12 hrs by LC-MS analysis; conditions: in vivo
TZM = assay: Cytotoxicity in uninfected human TZM-bl assessed as reduction in cell viability incubated for 1 day by Cyto-tox-Glo cytotoxicity assay; format: cell-based; conditions: 24 h
[21] = Acute toxicity in Kunming mouse assessed as induction of animal death at 1000 mg/kg, ig administered as single dose; format: organism-based; conditions: in vivo, po
[22] = Oral bioavailability in Sprague-Dawley rat at 20 mg/kg measured during 5 mins to 12 hrs by LC-MS analysis; format: ADME, organism-based; conditions: in vivo
[23] = Acute toxicity in Kunming mouse assessed as induction of abnormal behaviors by measuring anorexia at 1000 mg/kg, ig administered as single dose; format: organism-based; conditions: in vivo, po
[24] = Acute toxicity in Kunming mouse assessed as induction of abnormal behaviors by measuring lethargy at 1000 mg/kg, ig administered as single dose; format: organism-based; conditions: in vivo, po
in vitro [25] = conditions: human, liver microsomes; remark: listed apart in the source
Description: Stability in human liver microsomes assessed as compound remaining level incubated for 60 mins in absence of NADPH regenerating system by LC-MS/MS analysis

[26] = test system: Human immunodeficiency virus 1; assay: Antiviral activity against HIV1 3B infected in human MT4 cells assessed as reduction in virus-induced cell death incubated for 5 days by MTT assay; format: functional, organism-based; conditions: Human immunodeficiency virus 1, 3B, MT4, 120 h
[27] = Cmax in Sprague-Dawley rat at 20 mg/kg, po measured during 5 mins to 12 hrs by LC-MS analysis; format: ADME, organism-based; design: dose 20 mg/kg, route oral; conditions: in vivo
[28] = AUC (0 to t) in Sprague-Dawley rat at 2 mg/kg, iv measured during 5 mins to 12 hrs by LC-MS analysis; format: ADME, organism-based; design: dose 2 mg/kg, time 0.083-12 hr, route intravenous; conditions: in vivo
[29] = test system: Human immunodeficiency virus 1; assay: Antiviral activity against HIV1 Env-pseudotyped virus in human U87.CD4.CCR5 target cells assessed as reduction in viral infection at late stage; format: functional, organism-based; conditions: Human immunodeficiency virus 1, U87/CD4/CCR5
[30] = Acute toxicity in Kunming mouse assessed as induction of abnormal behaviors by measuring clonic convulsion at 1000 mg/kg, ig administered as single dose; format: organism-based; conditions: in vivo, po

For COc1ccc(N(C)C(=O)[C@H](Cc2ccccc2)NC(=O)CN2CCN(S(=O)(=O)c3ccc(N)cc3)CC2=O)cc1, the MRT inf [1] was 108 min, the AUC [2] was 511.5 ng·h/mL and the CLH [3] was 342 µL/min/mg. It also gave a Tmax (in vivo [4]) of 15 min, an IC50 [5] of 8.96 nM and an MRT inf [6] of 42 min. It also gave a remaining at 1 h (in vitro [7]) of 0%, a Tmax (in vivo [8]) of 4.98 min and an EC50 [9] of 90 nM. For the same compound, the half-life [10] was 72 min, the EC50 [11] was 31 nM and the AUC [12] was 120.6 ng·h/mL. For the same compound, the Vd [13] was 5.75 L/kg, the Stability [14] was 88.5% and the clearance [15] was 67.7 mL/min/kg. The Activity [16] was “Non-Toxic”, the Cmax [17] was 1280 ng/mL and the CC50 (MT4) was 179000 nM. For the same compound, the inhibition [18] was “Active”, the Activity [19] was “Non-Toxic” and the half-life [20] was 60 min. For the same compound, the CC50 (TZM) was greater than 34500 nM, the Activity [21] was “Non-Toxic” and the F [22] was 23%. For the same compound, the Activity [23] was “Non-Toxic”, the Activity [24] was “Non-Toxic” and the remaining at 1 h (in vitro [25]) was 93.4%. It also gave an EC50 [26] of 210 nM, a Cmax [27] of 83.8 ng/mL and an AUC(0-t) [28] of 506 ng·h/mL. The IC50 [29] was 240 nM and the Activity [30] was “Non-Toxic”.
